# Legend:
# [1] = biological target: GST-BCL-XL ΔTM protein (Homo sapiens (Human), UniProt Q07817); test: Competitive fluorescence polarization assay (FITC-Bak BH3 peptide); assay type: binding; settings: read-out: FPA IC50 (BCL-XL)
# Experimental: For competitive binding assays, 100 nM GST-BCL-XL ΔTM protein was preincubated with the tested compound at varying concentrations in 47.5 μL PBS (pH=7.4) in 96-well black plates at room temperature for 10 min, then 2.5 μL of 100 nM FITC-labeled Bak BH3 peptide was added to produce a final volume of 50 μL. The wild-type and mutant Bak BH3 peptides were included in each assay plate as positive and negative controls, respectively.
# IC50 was determined by fitting the experimental data to a sigmoidal dose-response nonlinear regression model (SigmaPlot 10.0.1, Systat Software, Inc., San Jose, Calif., USA). Data reported are mean of three independent experiments ±standard error (SE). […] Fluorescence polarization was measured after 10 min.
# [2] = system: H1299 cell line; test: Cell viability, ATP-LITE assay; assay type: cell-based, human; settings: 72 hours
# Experimental: (§1) The activity of the compounds against human cancer cell lines (PC3ML, H460, H1299, RS11846) were assessed by using the ATP-LITE assay (PerkinElmer). All cells were seeded in either F12 or RPMI1640 medium with 5 mM L-glutamine supplemented with 5% fetal bovine serum (Mediatech Inc.), penicillin and streptomycin (Omega). For maintenance, cells were cultured in 5% FBS. Cells plated into 96 well plates at varying initial densities depending on doubling time. H460 and H1299 plated at 2000 cells/well, A549 and PC3 at 3000 cells/well, and RS118456S at 10,000 cells/well. Compounds were diluted to final concentrations with 0.1% DMSO. Prior to dispensing compounds onto cells, fresh 5% media was placed into wells. Administration of compounds occurred 24 hours after seeding into the fresh media. Cell viability was evaluated using ATP-LITE reagent (PerkinElmer) after 72 hours of treatment. Data were normalized to the DMSO control-treated cells using Prism version 5.01 (Graphpad Software).
# [3] = system: H460 cell line; test: Cell viability, ATP-LITE assay; assay type: cell-based, human; settings: 72 hours, ATP-LITE
# Experimental: as §1
# [4] = system: PC3ML cells; test: Cell viability, ATP-LITE assay; assay type: cell-based, human; settings: 72 hours, ATP-LITE
# Experimental: as §1
# [5] = system: RS11846 cell line; test: Cell viability, ATP-LITE assay; assay type: cell-based, human; settings: 72 hours
# Experimental: as §1
# [6] = system: BCL-2 transgenic mice; test: Oral efficacy study in BCL-2 transgenic mice (splenomegaly); assay type: in vivo, mouse; settings: QDX5 for 3 weeks
# Experimental: The transgene was propagated on the Balb/c background.
# Spleens were removed and weighed.
# Spleens were excised from sacrificed mice and cell suspensions treated with a mouse erythrocyte lysing kit (R & D Systems). Total splenocyte count was determined by typan blue dye exclusion assays using hemocytometers. The percentage of B-lymphocytes was determined by fluorescence activated cell sorter (FACS) analysis SACS-CANTO, Bectin-Dickinson Inc., Mountain View, Calif.) following staining cells with Phyco-Erytrin (PE)-conjugated anti-CD19 or -B220 antibodies (Becton Dickinson, San Jose, Calif. 95131).
# Representative data are shown by FIGS. 11A and 11B.
# [7] = biological target: BIR3 domain of XIAP (Homo sapiens (Human), UniProt P98170); test: Reactivity test by [15N,1H]-correlation NMR; settings: 1 mM gossypol, 200 μM BIR3, two hours
# Experimental: Pure polyphenols were obtained from SIGMA (gossypol and purpurogallin) and/or from Microsource Discovery Systems (Purpurogallin derivatives). Reference compounds were obtained from Chembridge Corp. (San Diego). Gossypol was tested as a racemic mixture of (+) and (−) isomers. Compounds were dissolved in DMSO at 100 mM concentration and stored at −20 DC. NMR analysis was periodically performed on the compounds as a quality control, prior to further dilution for binding and displacement assays.
# Chain of GST-BCL-XL ΔTM protein (Q07817 1-209): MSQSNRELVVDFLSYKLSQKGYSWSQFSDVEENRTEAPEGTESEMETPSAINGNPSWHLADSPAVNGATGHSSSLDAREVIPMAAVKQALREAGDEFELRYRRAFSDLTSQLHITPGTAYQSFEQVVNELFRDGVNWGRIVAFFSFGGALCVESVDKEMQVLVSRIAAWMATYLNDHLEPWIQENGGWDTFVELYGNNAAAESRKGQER
# Chain of BIR3 domain of XIAP (P98170 241-356): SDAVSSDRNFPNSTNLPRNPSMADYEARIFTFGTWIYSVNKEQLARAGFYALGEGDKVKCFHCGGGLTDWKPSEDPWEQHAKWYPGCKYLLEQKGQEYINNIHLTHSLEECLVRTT
smiles,measurement,setting,value
"Cc1cc2c(C(C)C)c(O)c(O)c(C=O)c2c(O)c1-c1c(C)cc2c(C(C)C)c(O)c(O)c(C=O)c2c1O [Gossypol, gossypol]",IC50,[1],2720 nM
same,EC50,[2],6000 nM
same,EC50,[3],3000 nM
same,EC50,[4],3100 nM
same,EC50,[5],2200 nM
same,"tolerability, low dose",[6]; 0.06 mmol/kg oral,well tolerated
same,"shrinkage of spleen, low dose","[6]; 0.06 mmol/kg oral, wet weight and B-cell count",induced shrinkage of spleen to a considerable extent but not significantly
same,"tolerability, high dose",[6]; […] oral,not tolerated
same,"reactivity with 15N-labeled BIR3, spectrum versus apo-Bir3",[7],No appreciable differences

# — US9115061B2, “Naphthalene-based inhibitors of anti-apoptotic proteins” (BURNHAM INSTITUTE FOR MEDICAL RESEARCH, priority 2007, dated 2015)
